Legend:
Rattus norvegicus = experiment: Induction of 5HT4 receptor-mediated relaxation of esophagus in iv dosed anesthetized Sprague-Dawley rat by digital sonomicrometry; type: functional
[1] = target: T1, 5-hydroxytryptamine receptor 4 (Homo sapiens, UniProt Q13639); experiment: Displacement of [H]GR-113808 from human 5HT4C receptor expressed in HEK293 cells by liquid scintillation counting; type: cell-based
Homo sapiens = species on record: Homo sapiens; experiment: Selectivity ratio of Ki for human 5HT3A receptor to Ki for human 5HT4C receptor
[2] = target: T1, 5-hydroxytryptamine receptor 4; experiment: Agonist activity at human 5HT4C receptor expressed in HEK293 cells assessed as accumulation of cAMP by flash plate adenylyl cyclase activation assay; type: functional, cell-based
[3] = target: T1, 5-hydroxytryptamine receptor 4; experiment: Intrinsic activity at human 5HT4C receptor expressed in HEK293 cells assessed as accumulation of cAMP by flash plate adenylyl cyclase activation assay relative to serotonin; type: functional, cell-based
hERG (KCNH2) = hERG (KCNH2) (Homo sapiens, UniProt Q12809); experiment: Inhibition of human ERG potassium channel expressed in CHO-K1 cells at 3 uM by whole cell voltage clamp assay; type: cell-based; conditions: CHO-K1 cells expressing human ERG potassium channel
Sequence of hERG (KCNH2) (Q12809 whole entry): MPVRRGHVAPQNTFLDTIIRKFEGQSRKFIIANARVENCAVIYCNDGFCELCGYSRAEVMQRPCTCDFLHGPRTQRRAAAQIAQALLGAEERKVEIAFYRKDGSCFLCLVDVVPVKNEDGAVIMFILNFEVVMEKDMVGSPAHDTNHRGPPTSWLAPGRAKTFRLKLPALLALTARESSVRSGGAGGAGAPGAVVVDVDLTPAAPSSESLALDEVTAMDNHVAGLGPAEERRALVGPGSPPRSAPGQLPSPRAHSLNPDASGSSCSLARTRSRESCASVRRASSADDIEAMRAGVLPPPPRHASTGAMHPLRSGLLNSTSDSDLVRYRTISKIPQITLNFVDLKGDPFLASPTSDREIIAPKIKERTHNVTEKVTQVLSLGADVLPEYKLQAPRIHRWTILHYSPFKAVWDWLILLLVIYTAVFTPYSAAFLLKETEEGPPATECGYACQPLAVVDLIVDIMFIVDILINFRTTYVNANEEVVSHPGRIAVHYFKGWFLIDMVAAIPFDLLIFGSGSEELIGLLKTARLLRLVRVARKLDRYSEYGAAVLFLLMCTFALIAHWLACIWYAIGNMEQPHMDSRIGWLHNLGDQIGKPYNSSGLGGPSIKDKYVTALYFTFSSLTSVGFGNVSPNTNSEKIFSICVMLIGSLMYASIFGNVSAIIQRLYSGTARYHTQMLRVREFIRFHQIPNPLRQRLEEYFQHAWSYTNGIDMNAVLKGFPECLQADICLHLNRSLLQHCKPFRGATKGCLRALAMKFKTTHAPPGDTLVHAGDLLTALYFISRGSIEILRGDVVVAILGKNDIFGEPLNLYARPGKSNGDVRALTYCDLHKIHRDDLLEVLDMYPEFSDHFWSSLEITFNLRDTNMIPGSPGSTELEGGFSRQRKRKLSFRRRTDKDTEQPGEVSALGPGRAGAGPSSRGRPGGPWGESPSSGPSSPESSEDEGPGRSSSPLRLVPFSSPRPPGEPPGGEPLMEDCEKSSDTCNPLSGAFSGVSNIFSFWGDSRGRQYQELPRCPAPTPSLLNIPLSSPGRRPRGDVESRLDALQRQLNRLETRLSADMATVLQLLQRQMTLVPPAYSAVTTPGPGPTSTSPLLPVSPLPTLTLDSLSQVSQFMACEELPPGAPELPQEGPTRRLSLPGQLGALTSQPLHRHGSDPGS

[4] = Permeability across human Caco-2 cells assessed as permeability coefficient; type: ADME, cell-based; conditions: read-out: permeability
[5] = AUC (0 to t) in Sprague-Dawley rat at 5 mg/kg, po; type: ADME, organism-based; parameters: dose 5 mg/kg, route oral; conditions: plasma
[6] = Cmax in Sprague-Dawley rat at 5 mg/kg, po; type: ADME, organism-based; parameters: dose 5 mg/kg, route oral; conditions: in vivo
[7] = Half life in Sprague-Dawley rat at 5 mg/kg, po; type: ADME, organism-based; parameters: dose 5 mg/kg, route oral; conditions: in vivo
[8] = Oral bioavailability in Sprague-Dawley rat at 5 mg/kg, po; type: ADME, organism-based; conditions: in vivo
in vitro = conditions: rat, liver microsomes

T1 sequence (Q13639 whole entry): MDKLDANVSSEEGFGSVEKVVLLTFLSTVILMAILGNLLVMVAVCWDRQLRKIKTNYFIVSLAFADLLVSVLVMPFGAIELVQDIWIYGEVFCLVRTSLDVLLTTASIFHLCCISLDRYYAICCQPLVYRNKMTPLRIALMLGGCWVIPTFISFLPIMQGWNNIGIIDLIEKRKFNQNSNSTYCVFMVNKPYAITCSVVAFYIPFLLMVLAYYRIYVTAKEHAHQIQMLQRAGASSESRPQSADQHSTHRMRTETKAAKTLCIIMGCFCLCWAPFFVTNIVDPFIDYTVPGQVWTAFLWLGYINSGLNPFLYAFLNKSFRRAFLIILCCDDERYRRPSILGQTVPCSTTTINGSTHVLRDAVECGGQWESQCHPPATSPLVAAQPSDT

Row | SMILES | ED50 (Rattus norvegicus) [mg/kg] | Ki [1] [nM] | Ratio Ki (Homo sapiens) | EC50 [2] [nM] | Intrinsic activity [3] [%] | inhibition at 3 µM (hERG (KCNH2)) [%] | Papp [4] [×10⁻⁶ cm/s] | AUC(0-t) [5] [ng·h/mL] | Cmax [6] [ng/mL] | half-life [7] [h] | bioavailability [8] [%] | half-life (in vitro) [h]
1 | COc1cc(N)c(Cl)cc1C(=O)NC1CCN(CCCOc2ccc(F)cc2)CC1OC (stereo unspecified) [CISAPRIDE] | 0.142 | – | – | – | – | – | – | – | – | – | – | –
2 | CC(C)n1c(=O)c(C(=O)N[C@H]2C[C@H]3CC[C@@H](C2)N3CCCCCCCN(C)CCCN(C)S(C)(=O)=O)cc2ccccc21 | – | 5.01 | 6500 | 0.631 | 96 | 12 | 3 | – | – | – | – | –
3 | CC(C)n1c(=O)c(C(=O)N[C@H]2C[C@H]3CC[C@@H](C2)N3CCCN2CCCCC2)cc2ccccc21 | – | 6.31 | 9200 | 2 | > 100 | 39 | 24 | – | – | – | – | –
4 | CC(C)n1c(=O)c(C(=O)N[C@H]2C[C@H]3CC[C@@H](C2)N3CCCN2CCC(CNS(C)(=O)=O)CC2)cc2ccccc21 | – | 5.01 | 11000 | 1 | > 100 | 14 | 3 | – | – | – | – | –
5 | CC(C)n1c(=O)c(C(=O)N[C@H]2C[C@H]3CC[C@@H](C2)N3CCCCCCCN2CCN(c3ccccc3)CC2)cc2ccccc21 | – | 3.98 | 5300 | 7.94 | > 100 | 97 | 20 | – | – | – | – | –
6 | CC(C)n1c(=O)c(C(=O)N[C@H]2C[C@H]3CC[C@@H](C2)N3C[C@H](O)CN2CCN(S(C)(=O)=O)CC2)cc2ccccc21 | – | 50.1 | 1300 | 1.26 | > 100 | 6 | 20 | – | – | – | – | –
7 | CC(C)n1c(=O)c(C(=O)N[C@H]2C[C@H]3CC[C@@H](C2)N3CCCCCCCN2CCC(CNS(C)(=O)=O)CC2)cc2ccccc21 | – | 2.51 | 3100 | 0.631 | 98 | 5 | 2 | – | – | – | – | –
8 | CCOC(=O)N1CCN(CCCCCCCN2[C@@H]3CC[C@H]2C[C@@H](NC(=O)c2cc4ccccc4n(C(C)C)c2=O)C3)CC1 | – | 7.94 | 810 | 3.16 | > 100 | 87 | 14 | – | – | – | – | –
9 | CC(C)n1c(=O)c(C(=O)N[C@H]2C[C@H]3CC[C@@H](C2)N3CCCN2CCC[C@@H]2C(N)=O)cc2ccccc21 | – | 50.1 | 1500 | 3.98 | > 100 | 12 | 2 | – | – | – | – | –
10 | CC(C)n1c(=O)c(C(=O)N[C@H]2C[C@H]3CC[C@@H](C2)N3CCCN2CCN(c3ccccc3)CC2)cc2ccccc21 | – | 7.94 | 1000 | 0.794 | > 100 | 90 | 22 | – | – | – | – | –
11 | CC(C)n1c(=O)c(C(=O)N[C@H]2C[C@H]3CC[C@@H](C2)N3CCCCCCCN2CCN(S(C)(=O)=O)CC2)cc2ccccc21 | – | 10 | 2600 | 2.51 | > 100 | 46 | 22 | 83 | 10 | 20.3 | 20 | > 1.5
12 | CC(C)n1c(=O)c(C(=O)N[C@H]2C[C@H]3CC[C@@H](C2)N3CCCCCCCN2CCOCC2)cc2ccccc21 | – | 2 | 1600 | 2.51 | > 100 | 34 | 28 | – | – | – | – | –
13 | CC(C)n1c(=O)n(C(=O)NC2CCNCC2)c2ccccc21 | – | 1580 | 0.019 | 316 | > 100 | – | – | – | – | – | – | –
14 | CC(C)n1c(=O)c(C(=O)N[C@H]2C[C@H]3CC[C@@H](C2)N3CCCN(C)CCCN(C)S(C)(=O)=O)cc2ccccc21 | – | 200 | 210 | 10 | > 100 | 6 | 4 | – | – | – | – | –
15 | COc1cc(N)c(Cl)cc1C(=O)NC1CCN(CCCCCN2CCN(S(C)(=O)=O)CC2)CC1 | – | 39.8 | 280 | 12.6 | > 100 | – | – | – | – | – | – | –
16 | CC(C)n1c(=O)c(C(=O)N[C@H]2C[C@H]3CC[C@@H](C2)N3CCCCCCCN2CCCCC2)cc2ccccc21 | – | 2.51 | 10000 | 0.794 | 90 | 9 | 23 | – | – | – | – | –
17 | CC(C)n1c(=O)c(C(=O)N[C@H]2C[C@H]3CC[C@@H](C2)N3CCCCCN2CCN(S(C)(=O)=O)CC2)cc2ccccc21 | – | 15.8 | 2800 | 1.26 | > 100 | – | – | – | – | – | – | –
18 | CC(C)n1c(=O)n(C(=O)NCC2CCNCC2)c2ccccc21 | – | 39.8 | 0.21 | 15.8 | 92 | – | – | – | – | – | – | –
19 | CCN1CCC(NC(=O)c2cc(Cl)c(N)cc2OC)CC1 | – | 1000 | 4.2 | 79.4 | > 100 | – | – | – | – | – | – | –
20 | CCCCCCCCN1[C@@H]2CC[C@H]1C[C@@H](NC(=O)c1cc3ccccc3n(C(C)C)c1=O)C2 | – | 63.1 | 150 | 39.8 | > 100 | – | – | – | – | – | – | –

Row | SMILES | ED50 (Rattus norvegicus) [mg/kg] | Ki [1] [nM] | Ratio Ki (Homo sapiens) | EC50 [2] [nM] | Intrinsic activity [3] [%] | inhibition at 3 µM (hERG (KCNH2)) [%] | Papp [4] [×10⁻⁶ cm/s] | AUC(0-t) [5] [ng·h/mL] | Cmax [6] [ng/mL] | half-life [7] [h] | bioavailability [8] [%] | half-life (in vitro) [h]
21 | CCCCCCCCN1CCC(NC(=O)c2cc(Cl)c(N)cc2OC)CC1 | – | 79.4 | 23 | 39.8 | > 100 | – | – | – | – | – | – | –
22 | CC(C)n1nc(C(=O)NC2CCNCC2)c2ccccc21 | – | 398 | 0.52 | 200 | 50 | – | – | – | – | – | – | –
23 | COc1cc(N)c(Cl)cc1C(=O)NC1CCN(CCCCCO)CC1 | – | 63.1 | 110 | 15.8 | > 100 | – | – | – | – | – | – | –
24 | COc1cc(N)c(Cl)cc1C(=O)NC1CCN(CCCCCS(=O)(=O)O)CC1 | – | 6310 | 0.15 | 398 | 93 | – | – | – | – | – | – | –
25 | CC(C)n1c(=O)c(C(=O)N[C@H]2C[C@H]3CC[C@@H](C2)N3CCO)cc2ccccc21 | – | 126 | 3.2 | 31.6 | > 100 | – | – | – | – | – | – | –
26 | COc1cc(N)c(Cl)cc1C(=O)NC1CCN(CCS(=O)(=O)O)CC1 | – | 25100 | 1.5 | 1580 | > 100 | – | – | – | – | – | – | –
27 | CCOC(=O)N1CCN(CCCN2[C@@H]3CC[C@H]2C[C@@H](NC(=O)c2cc4ccccc4n(C(C)C)c2=O)C3)CC1 | – | 39.8 | 1300 | 2.51 | > 100 | 75 | 31 | – | – | – | – | –
28 | CC(C)n1c(=O)c(C(=O)N[C@H]2C[C@H]3CC[C@@H](C2)N3CCCCCN2C(=O)c3ccccc3C2=O)cc2ccccc21 | – | 15.8 | 1200 | 25.1 | > 100 | – | – | – | – | – | – | –
29 | CC(C)n1c(=O)c(C(=O)N[C@H]2C[C@H]3CC[C@@H](C2)N3CC(O)CN2CCN(S(C)(=O)=O)CC2)cc2ccccc21 (mixture of isomers) | – | 20 | 2400 | 0.794 | > 100 | 10 | 19 | – | – | – | – | –
30 | COc1ccc2[nH]cc(C(=O)NCC3CCNCC3)c2c1 | – | 3980 | 1.1 | 6310 | 42 | – | – | – | – | – | – | –
31 | COc1cc(N)c(Cl)cc1C(=O)NC1CCN(CCCCCN(C)CCc2c[nH]c3ccccc23)CC1 | – | 1.58 | 12000 | 1.26 | > 100 | – | – | – | – | – | – | –
32 | CC(C)n1c(=O)c(C(=O)N[C@H]2C[C@H]3CC[C@@H](C2)N3CCCCCCCCN2CCN(S(C)(=O)=O)CC2)cc2ccccc21 | – | 15.8 | 2100 | 3.16 | > 100 | – | – | – | – | – | – | –
33 | CC(C)n1nc(C(=O)N[C@H]2C[C@H]3CC[C@@H](C2)N3)c2ccccc21 | – | 63.1 | 0.092 | 39.8 | 94 | – | – | – | – | – | – | –
34 | CC(C)n1c(=O)c(C(=O)N[C@H]2C[C@H]3CC[C@@H](C2)N3CCCN2CCOCC2)cc2ccccc21 | – | 39.8 | 750 | 2.51 | > 100 | 80 | 22 | – | – | – | – | –
35 | CC(C)n1c(=O)c(C(=O)NCC2CCNCC2)cc2ccccc21 | – | 794 | 1.2 | 100 | > 100 | – | – | – | – | – | – | –
36 | COc1ccc2[nH]cc(C(=O)N[C@H]3C[C@H]4CC[C@@H](C3)N4)c2c1 | – | 3160 | 1.4 | 2510 | 77 | – | – | – | – | – | – | –
37 | CC(C)n1c(=O)c(C(=O)N[C@H]2C[C@H]3CC[C@@H](C2)N3CCCCCCCN2CCC[C@@H]2C(N)=O)cc2ccccc21 | – | 2 | 20000 | 0.398 | > 100 | 7 | 9 | – | – | – | – | –
38 | CCCCCN1CCC(NC(=O)c2cc(Cl)c(N)cc2OC)CC1 | – | 100 | 33 | 25.1 | > 100 | – | – | – | – | – | – | –
39 | CCCCCN1[C@@H]2CC[C@H]1C[C@@H](NC(=O)c1cc3ccccc3n(C(C)C)c1=O)C2 | – | 63.1 | 890 | 39.8 | > 100 | – | – | – | – | – | – | –
40 | COc1cc(N)c(Cl)cc1C(=O)NC1CCN(CCCCCCCCO)CC1 | – | 79.4 | 29 | 15.8 | > 100 | – | – | – | – | – | – | –

— ChEMBL document CHEMBL1153520, “A multivalent approach to the design and discovery of orally efficacious 5-HT4 receptor agonists” (J Med Chem, 2009)
